Read-outs that look alike come from different tables or passages of the source.
Key:
[1] = target: serotonin 5HT1A receptor (Homo sapiens (Human), UniProt P08908); test: Serotonin receptor binding, 5HT1A; conditions: ratio of affinities
From the text: (§1) The procedures to determine the binding affinities at the human dopamine D2-like receptors, the binding affinities at the serotonin 5HT1A, 5HT2A and 5HT2c receptors and functional mitogenesis assay are known in the art. See J. Med. Chem. 2005, 48, 839-848. See also, NIDA Research Monograph #178, Proceedings of the College of Drug Dependence, p. 440-466, 1998. Both of these references are incorporated by reference.

[2] = target: serotonin 5HT2c receptor (Homo sapiens (Human), UniProt P28335); test: Serotonin receptor binding, 5HT2c; conditions: ratio of affinities, 5HT2c over D3
Sequence of serotonin 5HT2c receptor (P28335 33-458): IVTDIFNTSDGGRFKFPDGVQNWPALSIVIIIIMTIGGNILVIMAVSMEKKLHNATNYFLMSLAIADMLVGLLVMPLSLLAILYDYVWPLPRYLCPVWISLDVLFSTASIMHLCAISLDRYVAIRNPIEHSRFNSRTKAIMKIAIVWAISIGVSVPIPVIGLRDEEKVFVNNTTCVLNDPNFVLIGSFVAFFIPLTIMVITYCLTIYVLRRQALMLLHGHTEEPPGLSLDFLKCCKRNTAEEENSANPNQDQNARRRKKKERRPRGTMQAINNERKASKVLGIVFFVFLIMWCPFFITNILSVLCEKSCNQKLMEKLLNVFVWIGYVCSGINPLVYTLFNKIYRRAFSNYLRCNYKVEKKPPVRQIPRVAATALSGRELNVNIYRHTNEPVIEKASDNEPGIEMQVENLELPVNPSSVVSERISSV
From the text: (§2) The procedures to determine the binding affinities at the human dopamine D2-like receptors, the binding affinities at the serotonin 5HT1A, 5HT2A and 5HT2c receptors and functional mitogenesis assay are known in the art. […] Both of these references are incorporated by reference.

[3] = target: T1, human dopamine D3 receptors in CHO cells (Homo sapiens (Human), UniProt P35462); test: D3 inhibition of quinpirole stimulation of mitogenesis (antagonist assay); format: cell-based; conditions: inhibition of 30 nM quinpirole stimulated mitogenesis, CHOp cells; read-out: IC50 ± S.E.M., D3
T1 sequence (P35462 whole entry): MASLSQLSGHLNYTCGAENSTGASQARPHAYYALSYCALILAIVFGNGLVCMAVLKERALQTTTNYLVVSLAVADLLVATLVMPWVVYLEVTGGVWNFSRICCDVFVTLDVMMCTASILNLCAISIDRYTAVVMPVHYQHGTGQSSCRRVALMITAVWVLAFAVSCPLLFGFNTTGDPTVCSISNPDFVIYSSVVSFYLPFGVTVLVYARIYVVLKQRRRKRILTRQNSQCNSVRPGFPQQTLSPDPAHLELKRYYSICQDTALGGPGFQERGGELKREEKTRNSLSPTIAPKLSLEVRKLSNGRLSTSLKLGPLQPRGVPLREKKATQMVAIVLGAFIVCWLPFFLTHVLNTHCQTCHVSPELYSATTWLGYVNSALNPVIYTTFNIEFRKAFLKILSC
Description: (§3) The cells were incubated at 37° C. in α-MEM with 10% FBS, 0.05% penicillin-streptomycin, and 200 μg/mL of G418. After 48 hours, the cells were rinsed twice with serum-free α-MEM and incubated for 24 hours at 37° C. In the functional assay for agonism, the medium was removed and replaced with 90 μl of serum-free α-MEM and 10 μl of test compound in sterile water; in the antagonist assay, the test compound was diluted in sterile water plus 30 nM quinpirole. After another 24-hour incubation at 37° C., 0.25 μCi of [^3H]thymidine was added to each well and the plates were further incubated for 2 hours at 37° C. The cells were then trypsinized, and the plates were filtered and counted as usual in the art. Quinpirole was run on every plate as an internal standard.
as §2

[4] = target: T2, human D4.4 dopamine receptor (Homo sapiens (Human), UniProt P21917); test: Human D2-like receptor competition binding in HEK cells, D4; conditions: for Ki: HEK 293 cells, hD4.4; for D4/D3 Ki ratio: head printed D4/D2, values correspond to D4 Ki over D3 Ki
T2 sequence (P21917 whole entry): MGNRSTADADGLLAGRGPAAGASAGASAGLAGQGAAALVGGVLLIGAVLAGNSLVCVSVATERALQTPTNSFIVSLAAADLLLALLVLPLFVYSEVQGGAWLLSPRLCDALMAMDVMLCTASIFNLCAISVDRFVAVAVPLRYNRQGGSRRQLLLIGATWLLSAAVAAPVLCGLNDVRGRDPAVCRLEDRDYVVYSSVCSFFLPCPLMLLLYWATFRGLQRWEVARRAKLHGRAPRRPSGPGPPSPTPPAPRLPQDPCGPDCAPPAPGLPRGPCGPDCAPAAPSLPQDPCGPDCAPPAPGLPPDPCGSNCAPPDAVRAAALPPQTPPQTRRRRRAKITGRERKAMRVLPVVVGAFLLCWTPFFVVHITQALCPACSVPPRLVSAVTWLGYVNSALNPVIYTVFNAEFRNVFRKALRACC
From the text: (§4) Human dopamine D2-long (D2) and D3 (D3) receptors were expressed in HEK cells. In brief, stably transfected HEK cells expressing the human D2-long and the D3 dopamine receptor were developed using the pIRES bicistronic expression vector (CLONTECH; Palo Alto, Calif.). […] For comparison, human dopamine D4 (D4) receptors were obtained from HEK 293 cells stably transfected with a PCR product of a human cDNA coding for the D4.4 form of the human D4 dopamine receptor.
as §2

[5] = target: human dopamine D2-long (D2) receptor (Homo sapiens (Human), UniProt P14416); test: Human D2-like receptor competition binding in HEK cells, D2; conditions: hD2L
Sequence of human dopamine D2-long (D2) receptor (P14416 whole entry): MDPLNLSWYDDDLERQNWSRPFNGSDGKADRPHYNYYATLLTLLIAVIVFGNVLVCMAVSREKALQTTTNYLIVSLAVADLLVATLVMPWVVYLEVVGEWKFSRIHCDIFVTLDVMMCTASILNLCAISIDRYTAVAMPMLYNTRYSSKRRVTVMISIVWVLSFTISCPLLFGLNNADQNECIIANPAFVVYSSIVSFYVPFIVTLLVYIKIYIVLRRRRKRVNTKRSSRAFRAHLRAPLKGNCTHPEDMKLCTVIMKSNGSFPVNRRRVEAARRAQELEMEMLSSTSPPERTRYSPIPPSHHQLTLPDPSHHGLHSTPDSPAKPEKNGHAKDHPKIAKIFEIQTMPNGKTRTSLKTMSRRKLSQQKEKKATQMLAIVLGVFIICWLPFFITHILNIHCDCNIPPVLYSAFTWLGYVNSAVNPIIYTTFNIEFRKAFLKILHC
From the text: as §4, §2

[6] = target: serotonin 5HT2A receptor (Homo sapiens (Human), UniProt P28223); test: Serotonin receptor binding, 5HT2A; conditions: ratio of affinities
Sequence of serotonin 5HT2A receptor (P28223 whole entry): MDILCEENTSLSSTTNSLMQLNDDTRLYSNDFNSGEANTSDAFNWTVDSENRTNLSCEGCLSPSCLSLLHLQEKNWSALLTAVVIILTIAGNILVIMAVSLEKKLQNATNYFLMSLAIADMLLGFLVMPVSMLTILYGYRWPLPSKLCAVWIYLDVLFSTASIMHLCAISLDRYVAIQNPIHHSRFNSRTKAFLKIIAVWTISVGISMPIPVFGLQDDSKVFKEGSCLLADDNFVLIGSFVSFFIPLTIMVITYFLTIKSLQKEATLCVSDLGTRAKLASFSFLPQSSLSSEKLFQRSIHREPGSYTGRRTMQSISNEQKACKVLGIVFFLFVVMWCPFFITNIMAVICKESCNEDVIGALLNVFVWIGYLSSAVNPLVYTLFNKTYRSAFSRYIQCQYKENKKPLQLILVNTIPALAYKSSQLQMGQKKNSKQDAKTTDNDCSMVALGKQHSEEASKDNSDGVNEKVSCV
From the text: as §2

[7] = target: human dopamine D3 receptor (Homo sapiens (Human), UniProt P35462); test: Human D2-like receptor competition binding in HEK cells, D3; conditions: for D2/D3: ratio of Ki at D2 over Ki at D3
Sequence of human dopamine D3 receptor (P35462 whole entry): as the sequence (P35462 whole entry) above
From the text: as §4, §2

[8] = target: T3, D2 receptor (human) in CHOp-cells (Homo sapiens (Human), UniProt P14416); test: D2 inhibition of quinpirole stimulation of mitogenesis (antagonist assay); format: cell-based; conditions: inhibition of 30 nM quinpirole stimulated mitogenesis, read-out: IC50 ± S.E.M., D2
T3 sequence (P14416 whole entry): as the sequence (P14416 whole entry) above
Description: as §3, §2

[9] = target: T3, D2 receptor (human) in CHOp-cells; test: D2 stimulation of mitogenesis (agonist assay); format: cell-based; conditions: for EC50: read-out: partial agonist activity: EC50, D2
Description: as §3, §1

[10] = target: T1, human dopamine D3 receptors in CHO cells; test: D3 stimulation of mitogenesis (agonist assay); format: cell-based; conditions: CHOp cells; for EC50: read-out: partial agonist activity: EC50, D3 (converted)
Description: as §3, §1

[11] = target: T2, human D4.4 dopamine receptor; conditions: HEK 293 cells; relative to D2 and D3; cited from earlier work
[12] = test system: σ1 binding sites; conditions: cited from earlier work
[13] = target: D1a dopamine receptors (Homo sapiens (Human), UniProt P21728); conditions: cited from earlier work
Sequence of D1a dopamine receptors (P21728 whole entry): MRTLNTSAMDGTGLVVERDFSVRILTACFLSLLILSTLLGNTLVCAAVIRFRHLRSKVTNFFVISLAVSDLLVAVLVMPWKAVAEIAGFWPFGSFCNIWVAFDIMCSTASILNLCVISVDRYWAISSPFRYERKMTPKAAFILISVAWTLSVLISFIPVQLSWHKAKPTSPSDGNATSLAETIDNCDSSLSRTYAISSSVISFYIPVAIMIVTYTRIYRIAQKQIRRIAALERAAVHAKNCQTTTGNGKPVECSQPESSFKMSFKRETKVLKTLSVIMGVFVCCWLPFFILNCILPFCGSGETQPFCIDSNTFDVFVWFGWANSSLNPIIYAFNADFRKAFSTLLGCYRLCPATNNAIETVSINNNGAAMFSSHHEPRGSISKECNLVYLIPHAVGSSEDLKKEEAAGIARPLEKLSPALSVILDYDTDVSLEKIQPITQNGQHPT

[14] = test system: σ2 binding sites; conditions: cited from earlier work
[15] = HEK cells, hD3, read-out: D3 Ki
[16] = Table 3, unit inferred, with spread, read-out: D3 binding affinity

Sequence of serotonin 5HT1A receptor (P08908 whole entry): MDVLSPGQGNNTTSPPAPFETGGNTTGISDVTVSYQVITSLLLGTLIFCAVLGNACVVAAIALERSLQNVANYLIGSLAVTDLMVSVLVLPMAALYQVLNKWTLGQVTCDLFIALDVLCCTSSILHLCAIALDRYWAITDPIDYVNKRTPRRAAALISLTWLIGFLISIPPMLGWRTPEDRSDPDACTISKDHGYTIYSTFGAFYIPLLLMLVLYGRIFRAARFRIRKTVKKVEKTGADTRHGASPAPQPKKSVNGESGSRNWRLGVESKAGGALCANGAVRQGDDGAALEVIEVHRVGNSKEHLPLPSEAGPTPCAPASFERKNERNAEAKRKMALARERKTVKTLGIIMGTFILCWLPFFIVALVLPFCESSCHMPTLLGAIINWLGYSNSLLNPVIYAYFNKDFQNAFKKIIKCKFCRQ

Structure (SMILES)	5HT1A/D3 [1]	5HT2c/D [2]	IC50 [3] [nM]	Ki [4] [nM]	D4/D3 Ki ratio [4]	Ki [5] [nM]	5HT2A/D3 [6]	Ki [7, 15] [nM]	Ki [7, 16] [nM]	D2/D3 [7]	IC50 [8] [nM]	partial agonist activity: % stimulation, D2 [9] [%]	EC50 [9] [nM]	partial agonist activity: % stimulation, D3 [10] [%]	EC50 [10] [nM]	fold lower affinity to human D4.4 dopamine receptors [11]	affinity to σ1 binding sites [12]	affinity to D1a dopamine receptors [13]	affinity to σ2 binding sites [14]
COc1ccccc1N1CCN(CC(O)CCNC(=O)c2ccc(-c3ccccn3)cc2)CC1 (stereo not shown) [Compound 18, N-(3-Hydroxy-4-(4-(2-methoxy-phenyl)-piperazin-1-yl)-butyl)-4-pyridin-2-yl-benzamide]	13	1407	12.8 ± 1.3	1490	532	284	248	2.8	2.8 ± 0.8	101	–	–	–	–	–	–	–	–	–
O=C(NC/C=C/CN1CCN(c2cccc(Cl)c2Cl)CC1)c1ccc(-c2cccc[n+]2[O-])cc1 [Compound 12, N-(4-(4-(2,3-Dichloro-phenyl)-piperazin-1-yl)-trans-but-2-enyl)-4-(pyridin-N-oxide-2-yl)-benzamide]	–	–	–	–	–	25.8	–	1.1	1.1 ± 0.3	–	22.9 ± 2	31	231	–	–	–	–	–	–
Cc1cccnc1-c1ccc(C(=O)NC/C=C/CN2CCN(c3cccc(Cl)c3Cl)CC2)cc1 [Compound 11, N-(4-(4-(2,3-Dichlorophenyl)piperazin-1-yl)-trans-but-2-enyl)-4-(3-methyl-pyridin-2-yl)-benzamide]	58	19	25.6 ± 8.5	–	–	92	29	1.6	1.6 ± 0.4	58	368 ± 113	–	–	–	–	–	–	–	–
O=C(NCCC(O)CN1CCN(c2cccc(Cl)c2Cl)CC1)c1ccc2c(c1)Cc1ccccc1-2 (stereo not shown) [Compound 17]	1006	1572	–	16400	9110	319	303	1.8	1.8	177	–	–	–	26	42 ± 1.3	–	–	–	–
CC(=O)OC(CCNC(=O)c1ccc(-c2ccccn2)cc1)CN1CCN(c2cccc(Cl)c2Cl)CC1 (stereo not shown) [Compound 20, 1-(4-(2,3-Dichlorophenyl)piperazin-1-yl)-4-(4-(pyridin-2-yl)-benzamido)-butan-2-yl acetate]	10	7	–	–	–	134	7	11.7	11.7 ± 1	11	–	–	–	47	3.9 ± 1.4	–	–	–	–
O=C(NCCC(O)CN1CCN(c2cccc(Cl)c2Cl)CC1)c1ccc(-c2ccccn2)cc1 (stereo not shown) [Compound 16, N-(4-(4-(2,3-Dichlorophenyl)piperazin-1-yl)-3-hydroxybutyl)-4-pyridin-2-yl-benzamide]	11	38	–	4620	1540	267	14	3	3 ± 0.2	89	–	26	15.8 ± 2.7	48	1 ± 0.1	–	–	–	–
Cc1cccc(-c2ccc(C(=O)NC/C=C/CN3CCN(c4cccc(Cl)c4Cl)CC3)cc2)n1 [Compound 10, N-(4-(4-(2,3-Dichloro-phenyl)-piperazin-1-yl)-trans-but-2-enyl)-4-(6-methyl-pyridin-2-yl)-benzamide]	221	69	6.7 ± 2.6	–	–	105	66	1.4	1.4 ± 0.3	75	1300 ± 320	–	–	–	–	–	–	–	–
COc1ccccc1N1CCN(C/C=C/CNC(=O)c2ccc(-c3ccccn3)cc2)CC1 [Compound 14, N-(4-(4-(2-Methoxy-phenyl)-piperazin-1-yl)-trans-but-2-enyl)-4-pyridin-2-yl-benzamide]	–	–	42.6 ± 7.9	–	–	–	–	2.9	2.9 ± 1.1	–	–	–	–	–	–	–	–	–	–
COc1cc([125I])cc(C(=O)NC2CC3CCCC(C2)N3Cc2ccccc2)c1OC (stereo not shown) [^125I-IABN]	–	–	–	–	–	–	–	–	–	–	–	–	–	–	–	7- to 10 fold	low affinity	low affinity	low affinity
O=C(NC/C=C/CN1CCN(c2cccc(Cl)c2Cl)CC1)c1ccc(-c2cccc(=O)[nH]2)cc1 [Compound 9, N-(4-(4-(2,3-Dichloro-phenyl)-piperazin-1-yl)-trans-but-2-enyl)-4-(6-oxo-1,6-dihydro-pyridin-2-yl)-benzamide]	–	–	–	–	–	23.6	–	0.6	0.6 ± 0.1	–	41 ± 8	–	–	–	–	–	–	–	–
COc1ccccc1N1CCN(C/C=C/CNC(=O)c2ccc3c(c2)Cc2ccccc2-3)CC1 [Compound 15, N-(4-(4-(2-methoxyphenyl)piperazin-1-yl)-trans-but-2-enyl)-9H-fluorene-2-carboxamide]	–	–	–	–	–	48.4	–	–	–	–	179 ± 48	–	–	–	–	–	–	–	–
O=C(NCC(O)CCN1CCN(c2cccc(Cl)c2Cl)CC1)c1ccc(-c2ccccn2)cc1 (stereo not shown) [Compound 21, N-(4-(4-(2,3-Dichlorophenyl)piperazin-1-yl)-2-hydroxybutyl)-4-(pyridin-2-yl)-benzamide]	30	50	5.4 ± 1.8	–	–	28.4	31	0.5	0.5 ± 0.1	57	88.3 ± 15.7	–	–	20	3.4	–	–	–	–
